In US3984395A, “Method of isolating gentamicin C2a” (Schering Corporation, priority 1974, dated 1976):
Converted amounts (≈) assume the structure as drawn.

Key:
[1] = acute intravenous LD50 in mice; conditions: mouse, in vivo, male CF-1 mice, 20 grams each
Klebsiella pneumoniae 17 = assay: in vitro MIC, standard tube dilution method; type: cell-based; conditions: Mueller-Hinton broth, read-out: minimal inhibitory concentration (MIC)
Source text: (§1) In Table 1, set forth below is shown the in vitro minimal inhibitory concentration (MIC) of gentamicin C2a against representative gram-positive and gram-negative bacteria. The results are derived using the standard tube dilution method in Mueller-Hinton broth.

[2] = tested on: Escherichia coli La290R55; assay: in vitro MIC, standard tube dilution method; type: cell-based; conditions: LA290R55, read-out: minimal inhibitory concentration (MIC)
Source text: as §1

[3] = tested on: Staphylococcus aureus 59N; assay: in vitro MIC, standard tube dilution method; type: cell-based; conditions: Mueller-Hinton broth, read-out: minimal inhibitory concentration (MIC)
Source text: as §1

[4] = tested on: Pseudomonas aeruginosa 762; assay: in vitro MIC, standard tube dilution method; type: cell-based; conditions: Mueller-Hinton broth, read-out: minimal inhibitory concentration (MIC)
Source text: as §1

[5] = tested on: Pseudomonas aeruginosa 20; assay: in vitro MIC, standard tube dilution method; type: cell-based; conditions: Mueller-Hinton broth, read-out: minimal inhibitory concentration (MIC)
Source text: as §1

Escherichia coli JR66 = assay: in vitro MIC, standard tube dilution method; type: cell-based; conditions: Mueller-Hinton broth, read-out: minimal inhibitory concentration (MIC)
Source text: as §1

[6] = tested on: Klebsiella pneumoniae 3694; assay: in vitro MIC, standard tube dilution method; type: cell-based; conditions: Mueller-Hinton broth, read-out: minimal inhibitory concentration (MIC)
Source text: as §1

Salmonella typhi. B. = assay: in vitro MIC, standard tube dilution method; type: cell-based; conditions: Salmonella enterica, read-out: minimal inhibitory concentration (MIC)
Source text: as §1

[7] = tested on: Pseudomonas aeruginosa 3223; assay: in vitro MIC, standard tube dilution method; type: cell-based; conditions: Mueller-Hinton broth, read-out: minimal inhibitory concentration (MIC)
Source text: as §1

[8] = tested on: Staphylococcus aureus 6538P; assay: in vitro MIC, standard tube dilution method; type: cell-based; conditions: Mueller-Hinton broth, read-out: minimal inhibitory concentration (MIC)
Source text: as §1

Bacillus subtilis 663 = assay: in vitro MIC, standard tube dilution method; type: cell-based; conditions: Mueller-Hinton broth, read-out: minimal inhibitory concentration (MIC)
Source text: as §1

[9] = tested on: Pseudomonas aeruginosa St 138; assay: in vitro MIC, standard tube dilution method; type: cell-based; conditions: ST138; Pseudomonas aeruginosa St 138 (Gentamicin resistant); Mueller-Hinton broth; read-out: minimal inhibitory concentration (MIC)
Source text: as §1

[10] = tested on: Staphylococcus aureus Ziegler; assay: in vitro MIC, standard tube dilution method; type: cell-based; conditions: Mueller-Hinton broth, read-out: minimal inhibitory concentration (MIC)
Source text: as §1

[11] = tested on: Escherichia coli ATCC 10536; assay: in vitro MIC, standard tube dilution method; type: cell-based; conditions: ATCC10536, Mueller-Hinton broth, read-out: minimal inhibitory concentration (MIC)
Source text: as §1

Streptococcus pyogenes C = assay: in vitro MIC, standard tube dilution method; type: cell-based; conditions: Mueller-Hinton broth, read-out: minimal inhibitory concentration (MIC)
Source text: as §1

[12] = tested on: Pseudomonas aeruginosa Travers; assay: in vitro MIC, standard tube dilution method; type: cell-based; conditions: Pseudomonas aeruginosa Travers (Gentamicin resistant); Mueller-Hinton broth; read-out: minimal inhibitory concentration (MIC)
Source text: as §1

[13] = tested on: gram-positive and gram-negative bacteria; assay: antibacterial spectrum in vitro; type: cell-based; conditions: compared with gentamicin C1, C1a, and C2
Source text: Thus, the antiobiotic may be used for substantially the same anti-bacterial indications and in the same manner as disclosed in U.S. Pat. No. 3,091,572. For example, it is useful in wash solutions, for sanitary purposes, as in the washing of hands and the cleaning of equipment in contaminated rooms.
as §1

Compound	LD50 [1] [mg/kg]	MIC (Klebsiella pneumoniae 17) [µg/mL]	MIC [2] [µg/mL]	MIC [3] [µg/mL]	MIC [4] [µg/mL]	MIC [5] [µg/mL]	MIC (Escherichia coli JR66) [µg/mL]	MIC [6] [µg/mL]	MIC (Salmonella typhi. B.) [µg/mL]	MIC [7] [µg/mL]	MIC [8] [µg/mL]	MIC (Bacillus subtilis 663) [µg/mL]	MIC [9] [µg/mL]	MIC [10] [µg/mL]	MIC [11] [µg/mL]	MIC (Streptococcus pyogenes C) [µg/mL]	MIC [12] [µg/mL]	antibacterial spectrum in vitro [13]
CN[C@@H]1[C@@H](O)[C@@H](O[C@@H]2[C@@H](O)[C@H](O[C@H]3O[C@H]([C@@H](C)N)CC[C@H]3N)[C@@H](N)C[C@H]2N)OC[C@]1(C)O [gentamicin C2]	83	–	–	–	–	–	–	–	–	–	–	–	–	–	–	–	–	–
CN[C@@H]1[C@@H](O)[C@@H](O[C@@H]2[C@@H](O)[C@H](O[C@H]3O[C@H]([C@H](C)N)CC[C@H]3N)[C@@H](N)C[C@H]2N)OC[C@]1(C)O [gentamicin C2a]	110	0.8 (≈ 1.73 µM)	17.5 (≈ 37.8 µM)	0.3 (≈ 0.647 µM)	0.8 (≈ 1.73 µM)	3 (≈ 6.47 µM)	7.5 (≈ 16.2 µM)	17.5 (≈ 37.8 µM)	0.3 (≈ 0.647 µM)	0.3 (≈ 0.647 µM)	0.3 (≈ 0.647 µM)	0.1 (≈ 0.216 µM)	> 25	0.3 (≈ 0.647 µM)	0.3 (≈ 0.647 µM)	7.5 (≈ 16.2 µM)	> 25	substantially the same antibacterial spectrum in vitro as do gentamicin C1, C1a, and C2
